≈ marks a conversion by molar mass, not a printed value. Blank lines part the entries; values can stand above or below the molecule they belong to.
Experiments:
LytG (GH73) = LytG (GH73) (Bacillus subtilis, UniProt O32083); test: In vitro GlcNAcase inhibition, turbidometric assay with purified peptidoglycan; type: biochemical, B. subtilis
Source text: FIG. 9 is a graph illustrating inhibition of LytG (GH73) from B. subtilis by fgka. The assay involved in vitro GlcNAcase inhibition of B. subtilis LytG by fgka, as measured using turbidometric assays with purified peptidoglycan (Horsburgh, et al., 2003, Biochemistry 42:257).

FlgJ (GH73) = FlgJ (GH73) (Salmonella typhimurium, UniProt P15931); test: Inhibition of FlgJ (GH73); type: biochemical, Salmonella enterica
Sequence of FlgJ (GH73) (P15931 whole entry): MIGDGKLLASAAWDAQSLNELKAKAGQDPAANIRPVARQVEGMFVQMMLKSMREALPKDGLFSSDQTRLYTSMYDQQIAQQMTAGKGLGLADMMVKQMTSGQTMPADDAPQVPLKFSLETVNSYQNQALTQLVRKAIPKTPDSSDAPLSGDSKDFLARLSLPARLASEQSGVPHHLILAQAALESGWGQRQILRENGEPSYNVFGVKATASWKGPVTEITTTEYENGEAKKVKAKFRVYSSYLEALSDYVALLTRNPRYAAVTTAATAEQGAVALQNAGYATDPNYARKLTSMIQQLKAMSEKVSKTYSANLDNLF
Experimental: Activity was measured as described in Herlihey, et al. 2014, J. Biol Chem 289(45):31029.

B. subtilis [1] = test: Resazurin microtiter MIC / serial dilution whole-cell assay; conditions: for Minimum inhibitory concentration (MIC), lowest concentration preventing color change blue to pink: serial dilution 250 μM down to 7.9 μM, triplicate, plates incubated only 30 minutes due to experimental error
E. coli = conditions: cited from earlier work
B. subtilis [2] = test: Single concentration (250 μM) whole-cell resazurin fluorescence assay; conditions: for degree of inhibition (smallest values of fluorescence): 250 μM inhibitor, fluorescence at 60 min
S. aureus = test: MIC against Gram-positive organisms: S. aureus; type: cell-based, Staphylococcus aureus; conditions: for MIC: Staphylococcus aureus, read-out: Minimum inhibitory concentration (MIC) S. aureus
S. pneumoniae = test: MIC against Gram-positive organisms: S. pneumoniae; type: cell-based, Streptococcus pneumoniae; conditions: for MIC: Streptococcus pneumoniae, read-out: Minimum inhibitory concentration (MIC) S. pneumoniae
B. subtilis [3] = test: MIC against Gram-positive organisms: B. subtilis; type: cell-based; conditions: Bacillus subtilis; read-out: Minimum inhibitory concentration (MIC) B. subtilis
[4] = system: peptidoglycan synthesis/metabolism in B. subtilis; test: UDP-MurNAc-pentapeptide accumulation (nucleotide sugar extraction, C18-RP-HPLC); type: cell-based, Bacillus subtilis; conditions: 4×MIC for 1 h after chloramphenicol pretreatment
Experimental: Ugi-derived terminal alkynes target peptidoglycan synthesis/metabolism. B. subtilis was grown to mid-exponential phase (O.D.600˜0.6) and all cultures treated with Chloramphenicol (Cm) ([…]) for 15 min. Cultures were then exposed to vancomycin (Van) ([…]) or fgkc (4×MIC) for 1 h. Nucleotide sugars were extracted with hot water and separated by C18-RP-HPLC. (*) denotes retention time of UDP-MurNAc-pentapeptide.

P. difficile = test: MIC against Gram-positive organisms: P. difficile; type: cell-based, Clostridium difficile (Peptoclostridium difficile); conditions: Clostridioides difficile; read-out: Minimum inhibitory concentration (MIC) P. difficile

Sequence of LytG (GH73) (O32083 30-282): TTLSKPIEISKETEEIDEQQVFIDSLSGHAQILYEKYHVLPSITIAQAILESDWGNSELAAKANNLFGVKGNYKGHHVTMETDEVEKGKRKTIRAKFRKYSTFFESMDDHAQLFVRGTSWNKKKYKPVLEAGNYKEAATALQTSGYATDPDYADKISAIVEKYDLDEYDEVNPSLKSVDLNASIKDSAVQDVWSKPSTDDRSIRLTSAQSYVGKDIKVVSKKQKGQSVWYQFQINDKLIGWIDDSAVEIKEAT

SMILES: CCCCNC(=O)C(C1CCCCC1)N(Cc1cn(C2OC(CO)C(O)C(O)C2NC(C)=O)nn1)C(=O)c1ccccc1I (stereo not shown) [BI.fgba]
inhibition of GlcNAcase LytG (LytG (GH73)): inhibits | inhibition of FlgJ (GH73) (FlgJ (GH73)): weak inhibition | MIC (B. subtilis [1]; Bacillus subtilis, read-out: minimum inhibitory concentration (MIC)): 63 µM (≈ 45.8 µg/mL) | bacteriostatic activity (B. subtilis [1]; bacterial strain B. subtilis): concentration-dependent bacteriostatic activity

SMILES: CC1=N[C@@H]2[C@@H](O)[C@H](O)[C@@H](CO)O[C@@H]2S1 [NAG-thiazoline]
effect on the viability of E. coli (E. coli): no effect

SMILES: COc1ccc(C(C(=O)NCc2ccccc2)N(C(=O)c2ccccc2I)c2ccccc2)cc1 (stereo not shown) [fbqb]
activity (structure-activity comparison) (B. subtilis [2]; 250 μM, compared to aliphatic derivatives): lower activity

SMILES: C#CCN(C(=O)c1ccccc1I)C(C(=O)NCCCC)C1CCCCC1 (stereo not shown) [fgba]
antibacterial activity against S. aureus (S. aureus): antibacterial activity | MIC (S. aureus): 2.81 µg/mL (≈ 5.85 µM) | inhibition of FlgJ (GH73) (FlgJ (GH73)): weak inhibition

SMILES: C#CCN(C(=O)c1ccccc1I)C(C(=O)NCc1ccccc1)C1CCCCC1 (stereo not shown) [fgbb]
antibacterial activity against S. pneumoniae (S. pneumoniae): antibacterial activity | MIC (S. pneumoniae): 3.62 µg/mL (≈ 7.04 µM)

SMILES: O=C(NCc1ccccc1)C(C1CCCCC1)N(C(=O)c1ccccc1I)C1CCCCC1 (stereo not shown) [fgkb]
antibacterial activity against B. subtilis Lyt G (B. subtilis [2]): antibacterial activity | degree of inhibition (smallest values of fluorescence) (B. subtilis [2]): highest degree of inhibition

SMILES: C#CCN(C(=O)c1ccccc1)C(C(=O)NCCCC)C1CCCCC1 (stereo not shown) [rgba]
Minimum inhibitory concentration (MIC), lowest concentration preventing color change blue to pink (B. subtilis [1]): 250 µM (≈ 88.6 µg/mL)

Further lines, with some results ahead:

MIC (S. pneumoniae): 3.56 µg/mL (≈ 7.03 µM)
SMILES: C#CCN(C(=O)c1ccccc1I)C(C(=O)NC1CCCCC1)C1CCCCC1 (stereo not shown) [fgbc]
antibacterial activity against S. pneumoniae (S. pneumoniae): antibacterial activity

MIC (B. subtilis [3]): 11.5 µg/mL (≈ 22 µM)
SMILES: CCCCNC(=O)C(C1CCCCC1)N(C(=O)c1ccccc1I)C1CCCCC1 (stereo not shown) [fgka]

MIC (B. subtilis [3]): 1.65 µg/mL (≈ 3 µM)
SMILES: O=C(NC1CCCCC1)C(C1CCCCC1)N(C(=O)c1ccccc1I)C1CCCCC1 (stereo not shown) [fgkc]
antibacterial activity against S. pneumoniae (S. pneumoniae): antibacterial activity | UDP-MurNAc-pentapeptide accumulation [4]: results in UDP-MurNAc-pentapeptide accumulation | antibacterial activity against B. subtilis Lyt G (B. subtilis [2]): antibacterial activity | degree of inhibition (smallest values of fluorescence) (B. subtilis [2]): highest degree of inhibition

MIC (P. difficile): 17.5 µg/mL (≈ 35.1 µM)
SMILES: CCCCNC(=O)C(C1CCCCC1)N(C(=O)c1ccccc1I)C(C)(C)C (stereo not shown) [fgna]

Minimum inhibitory concentration (MIC), lowest concentration preventing color change blue to pink (B. subtilis [1]): 62.5 µM (≈ 30.3 µg/mL)
SMILES: CCCCNC(=O)C(C1CCCCC1)N(C(=O)c1ccccc1I)C(C)C (stereo not shown) [fgoa]

MIC (S. aureus): 3.64 µg/mL (≈ 7.02 µM)
SMILES: CCCCNC(=O)C(C1CCCCC1)N(C(=O)c1ccccc1I)c1ccccc1 (stereo not shown) [fgqa]

From US10829440B2, “Antibacterial compounds and methods of making and using same” (Brown University, priority 2015, dated 2020)
